Values after ≈ are worked out from the molar mass of the structure shown.
Legend:
[1] = Inhibition of recombinant Mycobacterium tuberculosis salicylate synthase by fluorimetric assay
[2] = test system: Mycolicibacterium smegmatis; experiment: Antimycobacterial activity against Mycobacterium smegmatis ATCC 607 assessed as bacterial growth inhibition incubated for 48 hrs by resazurin dye based assay; type: functional
[3] = test system: Mycobacterium tuberculosis; experiment: Antitubercular activity against Mycobacterium tuberculosis XDR-FJ05195 assessed as inhibition of bacterial growth incubated for 14 days by microplate alamar blue assay; type: functional; conditions: XDR-FJ05195, 336 h, time 14 day
[4] = test system: Mycobacterium tuberculosis; experiment: Antimycobacterial activity against Mycobacterium tuberculosis H37Rv by green fluorescent protein microplate assay; type: functional
[5] = test system: Mycobacterium tuberculosis; experiment: Antibacterial activity against Mycobacterium tuberculosis H37Rv assessed as reduction in bacterial growth incubated for 7 to 14 days by broth microdilution method; type: functional; conditions: time 7-14 day
[6] = test system: Mycobacterium tuberculosis; experiment: Antibacterial activity against Mycobacterium tuberculosis H37Rv assessed as reduction in bacterial growth incubated for 7 to 14 days; type: functional; conditions: time 7-14 day
[7] = molecular target: T1, Salicyl-AMP ligase / salicyl-S-ArCP synthetase (Mycobacterium tuberculosis, UniProt P71716); experiment: Binding affinity to Mycobacterium tuberculosis H37Rv ATCC 25618 MbtA assessed as apparent binding constant; conditions: read-out: Ki(app)
T1 sequence (P71716 whole entry): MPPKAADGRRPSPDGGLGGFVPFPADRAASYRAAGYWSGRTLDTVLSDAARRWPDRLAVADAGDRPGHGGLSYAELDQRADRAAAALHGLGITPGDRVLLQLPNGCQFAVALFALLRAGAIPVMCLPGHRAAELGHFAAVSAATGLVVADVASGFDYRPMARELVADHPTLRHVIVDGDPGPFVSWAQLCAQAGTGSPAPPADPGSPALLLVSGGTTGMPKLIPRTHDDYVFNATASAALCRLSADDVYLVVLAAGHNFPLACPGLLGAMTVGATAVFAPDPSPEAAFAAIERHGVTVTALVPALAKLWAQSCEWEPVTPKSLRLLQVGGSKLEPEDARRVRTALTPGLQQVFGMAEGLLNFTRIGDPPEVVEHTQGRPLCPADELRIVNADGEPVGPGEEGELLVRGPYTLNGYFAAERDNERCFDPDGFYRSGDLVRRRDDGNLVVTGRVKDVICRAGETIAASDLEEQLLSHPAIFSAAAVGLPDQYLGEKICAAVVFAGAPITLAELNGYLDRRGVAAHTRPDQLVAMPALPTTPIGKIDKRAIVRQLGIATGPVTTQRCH

[8] = test system: Mycobacterium tuberculosis; experiment: Antimycobacterial activity against Mycobacterium tuberculosis assessed as reduction in bacterial growth measured after 7 days by fluorescence microplate analysis; type: functional, organism-based; conditions: 168 h; for MIC: time 7 day
[9] = test system: Mycobacterium tuberculosis; experiment: Antimycobacterial activity against Mycobacterium tuberculosis assessed as reduction in bacterial cell growth measured after 24 hrs; type: functional, organism-based
[10] = test system: Mycobacterium tuberculosis; experiment: Antimycobacterial activity against Mycobacterium tuberculosis H37Rv assessed as inhibition of bacterial growth incubated for 7 days by broth dilution method; type: functional; conditions: 168 h, time 7 day
[11] = Binding affinity to Mycobacterium tuberculosis salicylate synthase using chorismic acid as substrate in presence of MgCl2 by fluorimetric assay
[12] = Inhibition of Mycobacterium tuberculosis IdeR assessed as reduction in IdeR DNA binding activity by electrophoretic mobility shift assay
[13] = test system: Mycobacterium tuberculosis; experiment: Antitubercular activity against Mycobacterium tuberculosis H37Rv ATCC 25618 assessed as reduction in bacterial growth; type: functional
[14] = molecular target: T2, Enoyl-[acyl-carrier-protein] reductase [NADH] (Mycobacterium tuberculosis, UniProt P9WGR1); experiment: Binding affinity to Mycobacterium tuberculosis InhA assessed as inhibition constant
T2 sequence (P9WGR1 whole entry): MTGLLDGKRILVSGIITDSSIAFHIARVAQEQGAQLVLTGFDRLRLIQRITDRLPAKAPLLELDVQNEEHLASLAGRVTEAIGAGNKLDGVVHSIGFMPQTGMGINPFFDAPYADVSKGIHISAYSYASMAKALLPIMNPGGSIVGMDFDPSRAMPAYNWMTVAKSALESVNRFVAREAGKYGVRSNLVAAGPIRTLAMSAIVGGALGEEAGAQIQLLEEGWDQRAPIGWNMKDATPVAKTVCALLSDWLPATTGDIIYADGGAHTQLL

[15] = test system: Mycobacterium tuberculosis; experiment: Antitubercular activity against Mycobacterium tuberculosis H37Rv assessed as reduction in microbial growth by broth dilution method; type: functional, organism-based
[16] = test system: Mycobacterium tuberculosis; experiment: Antimycobacterial activity against Mycobacterium tuberculosis H37Rv assessed as inhibition of bacterial growth incubated for 5 days by broth microdilution method; type: functional; conditions: 120 h, time 5 day
[17] = test system: Mycobacterium tuberculosis; experiment: Antimicrobial activity against Mycobacterium tuberculosis H37Rv assessed as reduction in bacterial growth by Alamar Blue fluorescence assay; type: functional
[18] = test system: Mycobacterium tuberculosis; experiment: Antimycobacterial activity against Mycobacterium tuberculosis H37Rv assessed as reduction in bacterial growth after 7 days by resazurin based fluorescence assay; type: functional, organism-based; conditions: 168 h
[19] = test system: Mycolicibacterium smegmatis; experiment: Antimycobacterial activity against Mycobacterium smegmatis assessed as bacterial growth inhibition incubated for 48 hrs by resazurin dye based assay; type: functional
[20] = molecular target: T3, Trehalose monomycolate exporter MmpL3 (Mycolicibacterium smegmatis, UniProt A0QP27); experiment: Binding affinity to Mycobacterium smegmatis MmpL3 by surface plasmon resonance assay
T3 sequence (A0QP27 whole entry): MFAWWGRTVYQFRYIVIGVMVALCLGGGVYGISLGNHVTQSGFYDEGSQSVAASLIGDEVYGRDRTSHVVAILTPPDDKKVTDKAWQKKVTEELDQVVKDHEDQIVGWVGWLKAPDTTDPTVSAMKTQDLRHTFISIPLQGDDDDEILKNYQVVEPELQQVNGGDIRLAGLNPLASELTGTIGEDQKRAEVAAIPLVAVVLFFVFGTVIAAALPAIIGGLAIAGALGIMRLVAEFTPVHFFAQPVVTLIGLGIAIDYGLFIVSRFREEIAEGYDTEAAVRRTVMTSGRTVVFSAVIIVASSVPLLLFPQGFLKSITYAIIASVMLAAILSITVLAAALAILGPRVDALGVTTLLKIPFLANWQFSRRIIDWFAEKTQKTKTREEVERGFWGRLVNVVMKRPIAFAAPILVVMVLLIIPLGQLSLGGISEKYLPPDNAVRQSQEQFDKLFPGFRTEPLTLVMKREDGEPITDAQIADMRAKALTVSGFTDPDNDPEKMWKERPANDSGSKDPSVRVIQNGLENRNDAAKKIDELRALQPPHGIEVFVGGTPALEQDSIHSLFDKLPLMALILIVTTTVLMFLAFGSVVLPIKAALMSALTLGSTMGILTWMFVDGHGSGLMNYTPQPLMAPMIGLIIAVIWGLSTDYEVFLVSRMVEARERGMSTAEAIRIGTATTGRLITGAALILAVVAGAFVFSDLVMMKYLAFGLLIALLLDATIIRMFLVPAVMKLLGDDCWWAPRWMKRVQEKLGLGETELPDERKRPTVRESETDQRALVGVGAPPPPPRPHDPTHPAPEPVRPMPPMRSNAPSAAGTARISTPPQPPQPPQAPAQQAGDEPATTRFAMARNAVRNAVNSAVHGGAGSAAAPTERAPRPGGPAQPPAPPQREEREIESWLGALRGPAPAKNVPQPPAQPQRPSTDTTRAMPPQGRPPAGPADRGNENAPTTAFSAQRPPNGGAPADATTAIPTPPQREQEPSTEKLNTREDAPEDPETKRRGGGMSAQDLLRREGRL

[21] = test system: Mycobacterium tuberculosis; experiment: Antibacterial activity against Mycobacterium tuberculosis H37Rv assessed as reduction in bacterial growth; type: functional
[22] = test system: Mycobacterium tuberculosis; experiment: Antimycobacterial activity against Mycobacterium tuberculosis H37Ra assessed as reduction in bacterial growth by MABA method; type: functional
[23] = test system: Mycobacterium tuberculosis; experiment: Antimycobacterial activity against intracellular Mycobacterium tuberculosis assessed as reduction in cell growth; type: functional
[24] = test system: Mycobacterium tuberculosis; experiment: Antimycobacterial activity against Mycobacterium tuberculosis H37Rv assessed as reduction in bacterial growth incubated for 5 days by resazurin dye based fluorescence analysis; type: functional; conditions: 120 h, time 5 day
[25] = Cytotoxicity against mouse RAW264.7 cells assessed as reduction in cell viability incubated for 48 hrs by MTT assay; type: toxicity, cell-based
[26] = test system: Mycobacterium tuberculosis; experiment: Antimycobacterial activity against Mycobacterium tuberculosis assessed as inhibition of bacterial growth incubated for 7 days by broth dilution method; type: functional; conditions: 168 h, time 7 day

O=C(O)c1ccc(-c2ccc(C(F)(F)F)cc2C(F)(F)F)o1
Ki [1]: 8.8 µM

O=c1cc(CC2CCCCC2)[nH]c2c(-c3ccc(Cl)cc3)cnn12
MIC [2]: 2.5 µM (≈ 0.855 µg/mL)

CCCCCCCCCCCCCCCCC(=O)N(O)CCCC[C@H](NC(=O)[C@@H]1COC(c2ccccc2O)=N1)C(=O)NC[C@H](CC(=O)CCCO[C@H]1O[C@@H]2O[C@@]3(C)CC[C@H]4[C@H](C)CC[C@@H]([C@H]1C)[C@@]24OO3)C(=O)N[C@H]1CCCCN(O)C1=O
MIC [3]: 0.078 µg/mL (≈ 0.0668 µM)
MIC [4]: 0.39 µg/mL (≈ 0.334 µM)

C#CCCC(=O)Nc1ccc(C(=O)c2ccc(Nc3nc(N)c4ncn([C@@H]5O[C@H](COS(=O)(=O)NC(=O)c6ccccc6O)[C@@H](O)[C@H]5O)c4n3)cc2)cc1
MIC [5]: 3 µM (≈ 2.27 µg/mL)
MIC [6]: 50 µM (≈ 37.8 µg/mL)
Ki [7]: 0.94 nM

CCN(CC)S(=O)(=O)c1cccc(-n2sc3ccccc3c2=O)c1
IC50 [8]: 860 nM
IC50 [9]: 960 nM

CC=C(Oc1cccc(C(=O)O)c1O)C(=O)O
MIC [10]: > 1 µM
Ki [11]: 11000 nM

Cc1ccc(S(=O)(=O)C2CC(=O)N(c3ccc(F)c(Cl)c3)C2=O)cc1 (stereo not drawn)
IC50 [12]: 24.3 µg/mL
MIC90 [13]: 17.5 µg/mL (≈ 45.8 µM)

N#Cc1cc(-c2ccc(C(=O)O)o2)cc(C(F)(F)F)c1
Ki [14]: 9 µM
IC50 [15]: 15 µM

O=C(O)C1(Cc2ccc(O)c(O)c2)NCCS1 (stereo not drawn)
IC50 [12]: 2.4 µg/mL

Nc1ncnc2c1ncn2[C@@H]1O[C@H](COS(=O)(=O)NC(=O)c2ccccc2O)[C@@H](O)[C@H]1O
MIC [16]: 0.5 µg/mL (≈ 1.07 µM)
MIC [17]: 0.39 µg/mL (≈ 0.836 µM)
MIC [5]: 0.39 µM (≈ 0.182 µg/mL)
MIC [6]: 1.56 µM (≈ 0.728 µg/mL)

N#Cc1cc(C(F)(F)F)ccc1-c1ccc(C(=O)O)o1
Ki [1]: 5.7 µM
IC50 [18]: 18.5 µM

COc1ncnc2c1ncn2[C@@H]1O[C@H](CNS(=O)(=O)NC(=O)c2ccccc2O)[C@@H](O)[C@H]1O
MIC [19]: 5.3 µg/mL (≈ 11 µM)
Ki [20]: 277 nM

O=S(=O)(O)c1ccc(O)c(NNc2c(O)ccc3ccccc23)c1
IC50 [12]: 1 µg/mL

Nc1ncnc2c1ncn2[C@@H]1O[C@H](CNS(=O)(=O)NC(=O)c2ccccc2O)[C@@H](O)[C@@H]1F
Ki [11]: 1.8 nM
MIC [21]: 0.15 µM (≈ 0.0701 µg/mL)

C[N+](C)(CCCN1c2ccccc2Sc2ccc(Cl)cc21)Cc1ccccc1
MIC [22]: 1.1 µg/mL

O=[N+]([O-])c1cc(C(F)(F)F)ccc1NCCc1c[nH]c2ccc(O)cc12
IC90 [23]: 9.3 µM
MIC90 [24]: 13 µM (≈ 4.75 µg/mL)
IC50 at 48 h [25]: 29 µM

Nc1ncnc2c1ncn2[C@@H]1O[C@H](CNS(=O)(=O)NC(=O)c2ccccc2O)[C@H](F)[C@H]1O
Ki [11]: 0.6 nM
MIC [21]: 0.6 µM (≈ 0.28 µg/mL)

N#Cc1cc([N+](=O)[O-])ccc1-c1ccc(C(=O)O)o1
Ki [1]: 5 µM
IC50 [18]: 24.4 µM

CN(C[C@H]1O[C@@H](n2cnc3c(N)ncnc32)[C@H](O)[C@@H]1O)S(=O)(=O)NC(=O)c1ccccc1O
MIC [19]: 0.8 µg/mL (≈ 1.67 µM)
Ki [20]: 159 nM

COC(=O)C(=Cc1ccccc1C(F)(F)F)Oc1cccc(C(=O)OC)c1O
MIC [10]: 25 µM (≈ 9.91 µg/mL)
Ki [11]: 125000 nM

CC1CC(=O)c2c(cc(O)cc2C(=O)O)O1 (stereo not drawn)
MIC [26]: 55.8 µM (≈ 12.4 µg/mL)

Cc1ccc(-n2sc3ccccc3c2=O)cc1
IC50 [8]: 1590 nM

Nc1ncnc2c1ncn2[C@@H]1O[C@H](CNS(=O)(=O)NC(=O)c2ccccc2O)[C@@H](F)[C@H]1F
MIC [8]: 37 µM (≈ 17.4 µg/mL)
Ki [11]: 139 nM

Nc1ncnc2c1ncn2[C@@H]1O[C@H](CNS(=O)(=O)NC(=O)c2ccccc2O)[C@H](F)[C@H]1F
MIC [8]: 0.78 µM (≈ 0.366 µg/mL)
Ki [11]: 1.4 nM

Nc1ncnc2c1ncn2[C@@H]1O[C@H](CNS(=O)(=O)NC(=O)c2ccccc2O)[C@@H](O)[C@H]1F
Ki [11]: 1.7 nM
MIC [21]: 0.19 µM (≈ 0.0888 µg/mL)

O=C(O)c1ccc(-c2ccc([N+](=O)[O-])cc2Cl)o1
MIC [26]: 21.1 µM (≈ 5.65 µg/mL)
